According to article PMC8495455, “Discovery of a transdermally deliverable pentapeptide for activating AdipoR1 to promote hair growth” (EMBO Molecular Medicine, 2021):
Where “and” joins values, the source holds several entries; their conditions need not be identical. Equal values may be shown once.

What was measured:
human ORS cells = assay: MTT cell proliferation assay, ORS cells; type: cell-based; details: 0.5 or 5 μg/ml, 48 h, Paired t-test vs control
Source text: To design transdermally deliverable AdipoR1 agonist, we further assessed the 15‐mer sequence by cutting it into several 5‐mer peptides (Fig EV1B) (Bos & Meinardi, [2000]). Based on the fact that AdipoRs are expressed in HF cells, including dermal papilla (DP) and outer root sheath (ORS) cells (Won et al, [2012]), we performed a cell proliferation assay on human DP and ORS cells to see if there is any potential biological effect of the 5‐mer peptides on the human HF cells.
Dermal papilla cells and ORS cells were seeded into a 96‐well plate (1.0 × 10^4 cells/well) with serum‐free culture media for 24 h and then treated with each candidate 5‐mer peptide (in 0.5 μg/ml or 5 μg/ml) for 48 h. After the addition of MTT solution (20 μl, 5 mg/ml) to each well, the cells were incubated for 4 h at 37°C in the dark room and then incubated with dimethyl sulfoxide (DMSO, 200 μl) for 20 min at room temperature. The samples were assessed by measuring the absorbance at 570 nm with an absorbance microplate reader (VersaMax).

IGF-1 protein = assay: Growth factor protein quantitation in DP cell medium, IGF-1; type: cell-based, human; details: for protein_IGF1: DP cell medium
Source text: Next, we investigated the downstream effects of P5 on hair growth factor genes and proteins in DP cells. […] We tested whether P5 can also increase the mRNA levels and proteins of hair growth factors in DP cells: IGF‐1, VEGF, HGF, platelet‐derived growth factor alpha (PDGFA), and fibroblast growth factor (FGF) 7, which are known to induce or maintain the anagen phase of the hair cycle (Jindo et al, [1994]; Philpott et al, [1994]; Yano et al, [2001]; Jang, [2005]; Tomita et al, [2006]; Iino et al, [2007]).
Human DP cells were grown on a 100‐mm cell culture dish to 100% confluency. After washed by PBS three times, the cells were cultured with serum‐free DMEM and treated with P5. After 48 h, the medium was collected and filtered by a […]. The filtrate was then concentrated using a centrifugal concentrator (Vivaspin 6, 10‐kDa molecular weight cutoff, centrifuged 2,600 g at 4°C for 13 min, Sartorius Stedim Biotech). The signals of each protein in the concentrated media were detected and quantified, based on the enzyme‐linked immunosorbent assay (Human Cytokine Antibody Array C2000, RayBiotech).

human scalp HFs = assay: Ex vivo human HF organ culture, hair shaft elongation; type: cell-based; details: 6 days, vs vehicle
Method: (§1) We next investigated whether P5 can reproduce the effects of APN on hair growth promotion ex vivo (Won et al, [2012]) using ex vivo human HF organ culture model. […] The Ki‐67‐positive cell portion of the matrix area in the P5‐treated HFs was higher than that in the vehicle‐treated group (Fig 3E).
The microdissected full‐length scalp HFs in anagen VI were cut at the level of sebaceous duct and then ex vivo cultured for 6 days at 37°C in a 5% CO2 atmosphere in Williams E medium (#12551032, Gibco) supplemented with hydrocortisone (10 ng/ml), insulin (10 µg/ml), L‐glutamine (2 mM), and penicillin‐streptomycin solution (1×). To avoid any potential bias in the length measurement from pseudo‐catagen progression, the total length of pigmented hair shaft of each HF was measured every three days to calculate the net length of elongated hair shaft and photographed in culture day 6 using a stereomicroscope (Olympus).

[1] = system: matrix cells of human HF bulbs; assay: IF staining Ki-67 of ex vivo cultured HF bulb; type: cell-based; details: for Numbers of Ki-67-positive cells normalized to DAPI-stained cells: ex vivo cultured HF bulb, individual HFs, n = 8
Source text: as §1
(§2) Paraffin‐embedded mouse cutaneous back tissue was sectioned (4 μm thickness) and stained with hematoxylin and eosin. For IF staining, human ORS cells cultured in FiTC‐P5, sectioned paraffin‐embedded human HFs (7 μm thickness), and sectioned paraffin‐embedded mouse cutaneous dorsal tissue or human skin tissue (5 μm thickness) were incubated at 4°C overnight with the following primary antibodies diluted in the diluent reagent (Invitrogen): phospho‐AMPK (#2535, 1:100; Cell Signaling), Ki‐67 (#M7240, 1:200; Dako), versican (#ab177480, 1:200; Abcam), or AdipoR1 antibody (#ab126611, 1:200; Abcam). After three washes with PBS, the slides were incubated with the secondary Alexa Fluor 488‐labeled anti‐mouse or rabbit IgG antibody (#ab150077, #ab150113, 1:200; Invitrogen), or Alexa Fluor 594‐labeled anti‐rabbit IgG antibody (#a11012, 1:200; Invitrogen) at 25°C for 1 h. Nuclei were counterstained with 4′,6‐diamidino‐2‐phenylindole (DAPI; #D1306, 1:1,000; Invitrogen). Microscopic observations were performed with a Nikon Eclipse Ci‐L microscope (Nikon). IF intensity was observed and recorded with a Nikon Eclipse Ni‐E fluorescence microscope (Nikon).

C57BL/6 (WT) mice [2] = assay: Mouse hair cycle modulation, hair cycle score, WT mice; type: in vivo; details: for Gross morphology of dorsum: topical
Source text: (§3) First, we topically applied P5 and minoxidil as a positive control (Messenger & Rundegren, [2004]) on wildtype (WT) mouse. […] Overall, the hair cycle score was higher in the P5‐treated mice than vehicle‐treated mice (Fig 4B). […] Collectively, P5 induces anagen hair cycle in vivo.
(§4) For the hair cycle modulation experiment, Adipoq ^−/− (stock #008195; JAX) (Ma et al, [2002]), Adipor1 ^−/− (Yamauchi et al, [2007]; Okada‐Iwabu et al, [2013]), or C57BL/6 (KOATECH) female mice was used (Müller‐Röver et al, [2001]). They were housed (up to four animals per cage; 23 ± 2°C, 8:00–20:00, 12 h/12 h light/dark cycle). Mice were fed a standard chow diet and provided food and water ad libitum. Mice were randomly allocated and shaved dorsally at 7.5 weeks of age. Only mice in telogen were included for the further experiments (Müller‐Röver et al, [2001]). From 8 weeks of age, the shaved dorsal area was treated with vehicle control (ethanol and polyethylene glycol, 30% and 70% v/v), P5 (0.1 mM), or minoxidil (3%) every day. The mouse hair growth score (a value from 0 to 100 based on the skin pigmentation and hair shaft density) was monitored and documented at designated days with the experimenters being blind to the conditions, following a previous study (Chai et al, [2019]). A higher score corresponds to a transition from telogen to anagen. On day 35, we obtained dorsal cutaneous tissue for histological analysis: anagen induction scores (calculated using an assigned arbitrary score; telogen = 1, anagen I–VI = 2–7) (Müller‐Röver et al, [2001]).

C57BL/6 (WT) mice [3] = assay: Mouse hair cycle modulation, histology and anagen induction score, WT mice; type: in vivo
Source text: as §3, §2, §4

GLYYF [P5, GST-fused (GST-P5) in pulldown assays]
Cell proliferative effect, ORS cells (human ORS cells): significant cell proliferative effects | protein_IGF1 (IGF-1 protein; P5 5μM, relative to Control = 1, replicate 1): 0.9827 | protein_IGF1 (IGF-1 protein; P5 5μM, relative to Control = 1, replicate 2): 1.413 | protein_IGF1 (IGF-1 protein; P5 5μM, relative to Control = 1, replicate 3): 2.07 | protein_IGF1 (IGF-1 protein; P5 25μM, relative to Control = 1, replicate 1): 1.764 | protein_IGF1 (IGF-1 protein; P5 25μM, relative to Control = 1, replicate 2): 4.926 | protein_IGF1 (IGF-1 protein; P5 25μM, relative to Control = 1, replicate 3): 5.716 | IGF-1 protein expression level (IGF-1 protein; P5-treated DP cells, 48 h medium, n = 3): elevated | Hair shaft growth ex vivo (human scalp HFs): significantly promoted hair shaft growth ex vivo | Numbers of Ki-67-positive cells normalized to DAPI-stained cells ([1]; P5 5μM): 0.25 and 0.29 and 0.26 and 0.24 and 0.3 and 0.22 and 0.21 | Numbers of Ki-67-positive cells normalized to DAPI-stained cells ([1]; P5 25μM): 0.29 and 0.28 and 0.31 and 0.37 and 0.42 and 0.41 and 0.43 and 0.33 | Ki-67 in matrix cells of HF bulbs ([1]; ex vivo cultured human HFs, vs vehicle): increased significantly | Hair cycle score vs vehicle (C57BL/6 (WT) mice [2]; n = 16 mice/group, Two-way ANOVA): higher | Gross morphology of dorsum (C57BL/6 (WT) mice [2]; day 14): obvious pigmentation and hair | Gross morphology of dorsum (C57BL/6 (WT) mice [2]; day 35): manifested a black hair coat | Histological examination of HFs (C57BL/6 (WT) mice [3]; H&E): anagen HFs were noticeable | Anagen induction scores vs vehicle (C57BL/6 (WT) mice [3]; One-way ANOVA with Tukey's test): significantly higher
